Assay results as given in PubChem BioAssay (NCI).
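Exposure lasted 48 hours, with cells grown in 96-well plates and compounds tested at five concentrations. TGI is the concentration that stops growth completely.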

Experiments:
Assay in all cases: NCI anticancer screen, dose series, 48 h
786-0 renal = test system: 786-0 renal
A549 NSCLC = test system: A549 NSCLC
BT-549 breast = test system: BT-549 breast
CAKI-1 renal = test system: CAKI-1 renal
EKVX NSCLC = test system: EKVX NSCLC
HS 578T breast = test system: HS 578T breast
LOX IMVI melanoma = test system: LOX IMVI melanoma
MDA-MB-435 = test system: MDA-MB-435
RPMI-8226 leukemia = test system: RPMI-8226 leukemia
RXF 393 renal = test system: RXF 393 renal
SK-MEL-28 melanoma = test system: SK-MEL-28 melanoma
SK-MEL-5 melanoma = test system: SK-MEL-5 melanoma
SN12C renal = test system: SN12C renal
SNB-19 CNS = test system: SNB-19 CNS
T-47D breast = test system: T-47D breast
TK-10 renal = test system: TK-10 renal
UO-31 renal = test system: UO-31 renal
HL-60(TB) leukemia = test system: HL-60(TB) leukemia
NCI/ADR-RES ovarian = test system: NCI/ADR-RES ovarian

Measured: TGI

CC(C)(C)c1cc(C(=O)Nc2cc(Br)c(Br)cc2S(N)(=O)=O)cc(C(C)(C)C)c1O
21.3 µM: A549 NSCLC
> 100 µM: RPMI-8226 leukemia
19.4 µM: LOX IMVI melanoma
26.2 µM: EKVX NSCLC | SK-MEL-28 melanoma
25 µM: SK-MEL-5 melanoma
24.7 µM: MDA-MB-435 | UO-31 renal
23 µM: 786-0 renal
21.2 µM: SN12C renal
25.4 µM: BT-549 breast
31.1 µM: SNB-19 CNS
15.6 µM: T-47D breast
23.1 µM: RXF 393 renal
22.8 µM: CAKI-1 renal
25.5 µM: TK-10 renal
30.5 µM: HS 578T breast

ON/N=C/c1cc2c(cc1Br)OCO2
not listed: BT-549 breast | HS 578T breast | MDA-MB-435 | T-47D breast | UO-31 renal | NCI/ADR-RES ovarian
> 386 µM: all other assays above

Oc1ccc(-c2csc(NNC3=NC/C(=C/c4ccc5c(c4)OCO5)S3)n2)cc1O
90.7 µM: CAKI-1 renal
69.2 µM: UO-31 renal
72.4 µM: TK-10 renal
not listed: BT-549 breast | HS 578T breast | RPMI-8226 leukemia | RXF 393 renal | HL-60(TB) leukemia
> 100 µM: all other assays above

Nc1sc2c(c1C(=O)c1ccc(Cl)c(Cl)c1)CCCC2
78.1 µM: RPMI-8226 leukemia
65.3 µM: HL-60(TB) leukemia
not listed: SK-MEL-5 melanoma | NCI/ADR-RES ovarian
> 100 µM: all other assays above

O=C(/C=C/c1ccc(OCCCOc2ccc(/C=C/C(=O)c3ccccc3)cc2)cc1)c1ccccc1
not listed: BT-549 breast | CAKI-1 renal | HS 578T breast | MDA-MB-435 | T-47D breast | NCI/ADR-RES ovarian
> 100 µM: all other assays above

OC1[C@H]([C@H]2CCCC[C@@H]2O)CCC[C@@H]1[C@@H]1CCCC[C@H]1O (stereo not given in full)
not listed: BT-549 breast | HS 578T breast | MDA-MB-435 | T-47D breast | NCI/ADR-RES ovarian
> 100 µM: all other assays above

O=P1(O)C=CC2(CCCC2)O1
not listed: BT-549 breast | CAKI-1 renal | HS 578T breast | RPMI-8226 leukemia | RXF 393 renal | UO-31 renal
> 100 µM: all other assays above

OCC1OC(n2nc(-c3ccccc3)nc2-c2cnccn2)C(O)C(O)C1O (stereo not given)
not listed: CAKI-1 renal | EKVX NSCLC | HS 578T breast | RXF 393 renal | TK-10 renal
> 100 µM: all other assays above

CC[C@@]1(N(C)C)C(=O)OCc2c1cc1n(c2=O)Cc2cc3ccccc3nc2-1
39.5 µM: BT-549 breast
52.6 µM: T-47D breast
77 µM: UO-31 renal
51.9 µM: NCI/ADR-RES ovarian
33.5 µM: LOX IMVI melanoma
73.7 µM: 786-0 renal
31 µM: RXF 393 renal
not listed: CAKI-1 renal | HS 578T breast | SN12C renal | HL-60(TB) leukemia
> 100 µM: all other assays above

Cc1cccc(C(C)C)c1NC(=O)C(=O)CC(=O)c1sc(Nc2ccccc2Cl)nc1C
41 µM: HL-60(TB) leukemia
87.9 µM: SK-MEL-5 melanoma
33.2 µM: MDA-MB-435
93.2 µM: BT-549 breast
not listed: NCI/ADR-RES ovarian
> 100 µM: all other assays above

COc1cc(C2SCC(=O)N2c2cc(Cl)c(Cl)cc2Cl)cc(OC)c1OC (stereo not given)
89.7 µM: RPMI-8226 leukemia
64.7 µM: BT-549 breast
not listed: RXF 393 renal | T-47D breast
> 100 µM: all other assays above

CC1CC(C)C(O)C(C2CC(CC(=O)NC3CCCCC3)CC(=O)O2)C1 (stereo not given)
not listed: BT-549 breast | UO-31 renal
> 100 µM: all other assays above

N#CN=C(N)c1sc2nc3c(c(-c4ccc(Br)cc4)c2c1N)CCCC3
50.2 µM: 786-0 renal
60 µM: RXF 393 renal
38.3 µM: SK-MEL-5 melanoma
> 100 µM: A549 NSCLC | SK-MEL-28 melanoma | SNB-19 CNS | TK-10 renal
80.1 µM: NCI/ADR-RES ovarian
42.4 µM: CAKI-1 renal
57.6 µM: UO-31 renal
58.1 µM: SN12C renal
56.5 µM: RPMI-8226 leukemia
13.6 µM: MDA-MB-435
41.2 µM: LOX IMVI melanoma

CCC(C)n1c(C)nc2c1C(=O)c1ccccc1C2=O (stereo not given)
not listed: BT-549 breast | CAKI-1 renal | HS 578T breast | MDA-MB-435 | RPMI-8226 leukemia | T-47D breast | NCI/ADR-RES ovarian
> 100 µM: all other assays above

CC(C)(C)c1cc(CC2C(=O)c3ccccc3C2=O)cc(C(C)(C)C)c1O
20 µM: MDA-MB-435
3.34 µM: RPMI-8226 leukemia
18.1 µM: BT-549 breast
12 µM: SNB-19 CNS
23.7 µM: TK-10 renal
28 µM: EKVX NSCLC
21.1 µM: 786-0 renal
16.2 µM: LOX IMVI melanoma
20.4 µM: CAKI-1 renal
39.8 µM: HS 578T breast
10.5 µM: UO-31 renal
35.9 µM: SN12C renal
11.1 µM: SK-MEL-5 melanoma
> 100 µM: NCI/ADR-RES ovarian
87.2 µM: A549 NSCLC
6.69 µM: HL-60(TB) leukemia

CC(=O)[C@@H]1[C@@H](OC(=O)CCC(C)COC2OC(CO)C(O)C(O)C2O)C[C@H]2[C@@H]3CC=C4C[C@@H](OC5OC(CO)C(OC6OC(C)C(O)C(O)C6O)C(O)C5OC5OC(C)C(O)C(O)C5O)CC[C@]4(C)[C@H]3CC[C@]12C (stereo not given in full)
not listed: HS 578T breast | HL-60(TB) leukemia | NCI/ADR-RES ovarian
> 100 µM: all other assays above

CCOC(=O)Nc1cc2nnc(-c3ccccc3)nc2c(N)n1
30.8 µM: LOX IMVI melanoma
35.1 µM: A549 NSCLC
84.7 µM: UO-31 renal
> 100 µM: CAKI-1 renal | EKVX NSCLC | SK-MEL-28 melanoma | SN12C renal | SNB-19 CNS | TK-10 renal
27.1 µM: 786-0 renal
53.5 µM: RXF 393 renal
35.7 µM: SK-MEL-5 melanoma
37.5 µM: HL-60(TB) leukemia
74.3 µM: RPMI-8226 leukemia

CCc1ccc(N=Cc2cc(OC)c(OC)c(OC)c2)cc1
47.2 µM: RPMI-8226 leukemia
not listed: BT-549 breast | HS 578T breast | MDA-MB-435 | T-47D breast | NCI/ADR-RES ovarian
> 100 µM: all other assays above

CC(=O)OC12/C(=N/O)CCCCCC1c1ccccc12 (stereo not given)
not listed: BT-549 breast | CAKI-1 renal | HS 578T breast | MDA-MB-435 | T-47D breast | NCI/ADR-RES ovarian
> 100 µM: all other assays above

Cc1ccc(S(=O)(=O)c2c(N)c3nc4ccccc4n3c3nc4ccccc4nc23)cc1
not listed: BT-549 breast | HS 578T breast | MDA-MB-435 | RXF 393 renal | T-47D breast | TK-10 renal | HL-60(TB) leukemia | NCI/ADR-RES ovarian
> 100 µM: all other assays above

CN(C)CCOc1cccc2c1C(=O)c1ccccc1C2=O
43.8 µM: CAKI-1 renal
25.3 µM: SK-MEL-5 melanoma
37.3 µM: SN12C renal
66.3 µM: SNB-19 CNS
27.3 µM: RXF 393 renal
34.6 µM: EKVX NSCLC
45.4 µM: A549 NSCLC
66.6 µM: TK-10 renal
52 µM: 786-0 renal
45.2 µM: UO-31 renal
18.6 µM: LOX IMVI melanoma
29.4 µM: HL-60(TB) leukemia
28.6 µM: SK-MEL-28 melanoma

O=c1sc2c(s1)SSSSS2
not listed: HS 578T breast | HL-60(TB) leukemia
> 50 µM: all other assays above

Cc1cn(Cc2ccccc2CCO)c(=S)[nH]c1=O
not listed: BT-549 breast | HS 578T breast | MDA-MB-435 | T-47D breast | NCI/ADR-RES ovarian
> 100 µM: all other assays above

O=S(=O)(O)c1c(Cl)cc(O)c2ncccc12
not listed: HS 578T breast | TK-10 renal | HL-60(TB) leukemia
> 100 µM: all other assays above

O=C(Nc1c(O)[nH]c(=S)[nH]c1=O)c1ccccc1F
not listed: BT-549 breast | EKVX NSCLC | HS 578T breast | MDA-MB-435 | RXF 393 renal | T-47D breast | NCI/ADR-RES ovarian
> 100 µM: all other assays above

COc1ccc(C2=CC(c3ccccc3)n3nnnc3N2)cc1 (stereo not given)
not listed: BT-549 breast | EKVX NSCLC | SK-MEL-28 melanoma | TK-10 renal
> 100 µM: all other assays above

Cc1ccccc1C(=O)c1c(O)c2c(c(O)c1Br)CCCC2
54.1 µM: A549 NSCLC
27.9 µM: 786-0 renal
54.7 µM: SNB-19 CNS
57.5 µM: RPMI-8226 leukemia
35.9 µM: CAKI-1 renal
35.4 µM: SK-MEL-5 melanoma
23 µM: HL-60(TB) leukemia
34.3 µM: EKVX NSCLC
33.3 µM: SN12C renal
33.7 µM: RXF 393 renal
31.7 µM: TK-10 renal | UO-31 renal

NCCSc1nc2ccccc2s1
90.8 µM: LOX IMVI melanoma
76.4 µM: HS 578T breast
66.3 µM: TK-10 renal
77.9 µM: RXF 393 renal
93.8 µM: BT-549 breast
95.7 µM: RPMI-8226 leukemia
80.6 µM: EKVX NSCLC
71.5 µM: 786-0 renal
69 µM: MDA-MB-435
not listed: T-47D breast
> 100 µM: all other assays above

CC1(C)CCC[C@@]2(C)C1CCC1(C)C(CCc3ccoc3)/C(=C/OS(=O)(=O)O)CCC12 (stereo not given in full) (tested in a mixture with another compound)
not listed: BT-549 breast | HS 578T breast | MDA-MB-435 | T-47D breast | NCI/ADR-RES ovarian
> 100 µM: all other assays above

C/C(CN1C(=O)c2ccccc2C1=O)=N\NS(=O)(=O)c1ccc(C)cc1
not listed: BT-549 breast | HS 578T breast | LOX IMVI melanoma | MDA-MB-435 | RXF 393 renal | SK-MEL-28 melanoma | T-47D breast | NCI/ADR-RES ovarian
> 100 µM: all other assays above

CCOC(=O)c1cnn2c1ncc1c(=O)n(NC(N)=O)ccc12
not listed: RPMI-8226 leukemia | RXF 393 renal | NCI/ADR-RES ovarian
> 100 µM: all other assays above
